Laboratory results taken from US12496348B2, “Small molecule target bromo/acetyl proteins and uses thereof” (DANA-FARBER CANCER INSTITUTE, INC., priority 2019, dated 2025).
Where two headings read alike, the source gives them in different places.

Columns and labels:
[1] = test system: Kelly Neuroblastoma cells; assay: ATPlite Luminescence viability assay, Kelly neuroblastoma cells, 72 h; format: cell-based; settings: for IC50: ATPlite; for IC50 values (range in words): Kelly Neuroblastoma cell proliferation
Protocol: Kelly Neuroblastoma cells were seeded at 1,000 cells per well in 384 well, white plates and were treated in a dose-dependent manner for 72 h.

[2] = target: CBP bromodomain (Homo sapiens (Human), UniProt Q92793); assay: CBP (Bromodomain) AlphaScreen Assay; format: binding; settings: FIG. 6
CBP bromodomain, sequence (Q92793 1085-1192): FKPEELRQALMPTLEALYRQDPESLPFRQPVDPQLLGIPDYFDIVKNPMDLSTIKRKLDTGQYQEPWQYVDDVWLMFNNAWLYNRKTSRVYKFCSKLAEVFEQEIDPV
Protocol: Assays were performed with minimal modifications from the manufacturer's protocol (PerkinElmer®, USA). All reagents were diluted in 50 mM 4-(2-hydroxyethyl)-1-piperazineethanesulfonic acid (HEPES), 150 mM NaCl, 0.1% w/v bovine serum albumin (BSA), 0.01% w/v Tween® 20, pH 7.5 and allowed to equilibrate to room temperature prior to addition to plates. After addition of AlphaScreen® acceptor beads to master solutions, all subsequent steps were performed under low light conditions. […] Plates were spun down at 150×g, 100 nL of compound in dimethyl sulfoxide (DMSO) from stock plates were added by pin transfer using a Janus® Workstation (PerkinElmer®, USA). The streptavidin-coated donor beads (10 ng/ml final) were added as with previous the solution in a 2×10 μL volume. Following this addition, plates were sealed with foil to prevent light exposure and evaporation. The plates were spun down again at 150×g.

[3] = target: EP300 (Homo sapiens (Human), UniProt Q09472); assay: Western blot for EP300 degradation in Kelly NB cells; format: cell-based; settings: 24 hours
EP300, sequence (Q09472 whole entry): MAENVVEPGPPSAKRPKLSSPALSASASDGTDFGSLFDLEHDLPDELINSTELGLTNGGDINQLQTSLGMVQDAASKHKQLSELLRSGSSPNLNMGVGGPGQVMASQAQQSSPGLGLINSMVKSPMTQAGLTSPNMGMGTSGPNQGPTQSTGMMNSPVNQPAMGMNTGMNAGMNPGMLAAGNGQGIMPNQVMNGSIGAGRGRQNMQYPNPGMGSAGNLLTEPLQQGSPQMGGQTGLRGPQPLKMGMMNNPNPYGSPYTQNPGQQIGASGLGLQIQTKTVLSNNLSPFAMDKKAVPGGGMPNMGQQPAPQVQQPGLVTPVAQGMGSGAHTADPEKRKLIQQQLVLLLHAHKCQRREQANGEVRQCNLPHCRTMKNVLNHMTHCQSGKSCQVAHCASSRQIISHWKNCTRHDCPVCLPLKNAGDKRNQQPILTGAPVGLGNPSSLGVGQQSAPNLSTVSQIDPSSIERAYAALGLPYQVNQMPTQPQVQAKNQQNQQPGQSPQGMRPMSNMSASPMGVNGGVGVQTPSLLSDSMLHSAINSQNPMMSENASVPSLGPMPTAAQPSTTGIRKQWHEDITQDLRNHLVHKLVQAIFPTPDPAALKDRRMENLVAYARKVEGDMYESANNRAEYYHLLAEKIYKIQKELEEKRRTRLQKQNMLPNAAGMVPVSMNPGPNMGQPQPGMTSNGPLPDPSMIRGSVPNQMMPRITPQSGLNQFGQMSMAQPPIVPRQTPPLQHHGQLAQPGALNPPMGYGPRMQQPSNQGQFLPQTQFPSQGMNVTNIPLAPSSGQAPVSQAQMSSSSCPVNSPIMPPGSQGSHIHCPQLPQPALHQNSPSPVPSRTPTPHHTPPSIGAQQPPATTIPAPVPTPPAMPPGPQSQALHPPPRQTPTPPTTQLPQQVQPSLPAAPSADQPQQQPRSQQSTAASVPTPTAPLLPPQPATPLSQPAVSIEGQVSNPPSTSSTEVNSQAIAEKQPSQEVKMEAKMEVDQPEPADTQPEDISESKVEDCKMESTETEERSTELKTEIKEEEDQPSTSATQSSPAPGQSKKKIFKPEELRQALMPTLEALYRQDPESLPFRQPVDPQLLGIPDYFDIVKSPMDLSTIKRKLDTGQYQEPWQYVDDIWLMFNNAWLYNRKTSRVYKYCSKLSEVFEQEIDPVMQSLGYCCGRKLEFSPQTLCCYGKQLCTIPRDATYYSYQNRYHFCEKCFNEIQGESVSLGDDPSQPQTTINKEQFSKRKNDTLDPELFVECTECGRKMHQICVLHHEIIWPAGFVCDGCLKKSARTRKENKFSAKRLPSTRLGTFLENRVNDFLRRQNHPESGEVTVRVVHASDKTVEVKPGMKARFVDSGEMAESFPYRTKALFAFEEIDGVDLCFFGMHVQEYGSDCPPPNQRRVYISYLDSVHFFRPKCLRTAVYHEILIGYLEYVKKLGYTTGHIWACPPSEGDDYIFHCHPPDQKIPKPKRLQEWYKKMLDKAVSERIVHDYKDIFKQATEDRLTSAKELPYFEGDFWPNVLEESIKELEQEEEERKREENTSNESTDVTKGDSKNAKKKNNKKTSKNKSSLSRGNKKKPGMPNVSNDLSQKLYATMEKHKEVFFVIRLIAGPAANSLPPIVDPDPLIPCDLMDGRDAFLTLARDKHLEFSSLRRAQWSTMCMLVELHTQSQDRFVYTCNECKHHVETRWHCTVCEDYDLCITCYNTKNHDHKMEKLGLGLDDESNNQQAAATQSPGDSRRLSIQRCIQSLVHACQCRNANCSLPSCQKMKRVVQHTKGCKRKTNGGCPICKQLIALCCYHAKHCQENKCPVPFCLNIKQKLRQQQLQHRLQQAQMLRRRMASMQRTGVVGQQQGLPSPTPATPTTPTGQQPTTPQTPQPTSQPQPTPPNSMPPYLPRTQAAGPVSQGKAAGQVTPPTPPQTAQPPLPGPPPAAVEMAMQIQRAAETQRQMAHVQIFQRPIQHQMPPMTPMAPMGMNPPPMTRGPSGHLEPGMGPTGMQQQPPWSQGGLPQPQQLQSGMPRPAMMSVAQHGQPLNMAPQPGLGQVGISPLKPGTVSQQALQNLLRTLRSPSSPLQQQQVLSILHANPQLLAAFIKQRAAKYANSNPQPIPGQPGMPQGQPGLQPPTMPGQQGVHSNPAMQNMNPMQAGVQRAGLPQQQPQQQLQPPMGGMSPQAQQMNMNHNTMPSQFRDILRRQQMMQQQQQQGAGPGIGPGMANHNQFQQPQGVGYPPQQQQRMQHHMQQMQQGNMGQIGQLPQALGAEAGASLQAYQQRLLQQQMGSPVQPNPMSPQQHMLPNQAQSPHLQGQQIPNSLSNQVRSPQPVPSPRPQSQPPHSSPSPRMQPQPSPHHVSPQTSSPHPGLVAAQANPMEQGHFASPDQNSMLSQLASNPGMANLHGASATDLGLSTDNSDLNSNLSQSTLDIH
Protocol: (§1) […] Whole cell lysates were collected using ice cold lysis buffer [300 mM NaCl, 50 mM Tris-HCl, pH 7.5, 0.5% Triton X-100, 1% sodium dodecyl sulfate (SDS), 1 mM dithiothreitol (DTT) (Invitrogen™), Roche®'s cOmplete™ protease inhibitor cocktail (1:000), 25 units/mL Benzonase®] and blotted at a protein concentration of 30 μg for EP300 and CBP and 10 μg for histone H3 and H3K27ac. Lysates were also blotted for bromodomain-containing protein 4 (BRD4). Lysates were resolved in NuPAGE™ 3-8% Tris-Acetate polyacrylamide gels (EA03785BOX, Invitrogen™) for EP300 and CBP and Bolt 4-12% Bis-Tris polyacrylamide gels (NW04125BOX, Invitrogen™) for H3 and H3K27ac. Afterwards, gels were transferred to nitrocellulose membranes (LC2001, Invitrogen™). […] Visualization was performed on an Odyssey infrared imaging system (LiCor® Biosciences).

[4] = target: CBP (Homo sapiens (Human), UniProt Q92793); assay: Western blot for CBP degradation in Kelly NB cells; format: cell-based; settings: 24 hours
CBP, sequence (Q92793 whole entry): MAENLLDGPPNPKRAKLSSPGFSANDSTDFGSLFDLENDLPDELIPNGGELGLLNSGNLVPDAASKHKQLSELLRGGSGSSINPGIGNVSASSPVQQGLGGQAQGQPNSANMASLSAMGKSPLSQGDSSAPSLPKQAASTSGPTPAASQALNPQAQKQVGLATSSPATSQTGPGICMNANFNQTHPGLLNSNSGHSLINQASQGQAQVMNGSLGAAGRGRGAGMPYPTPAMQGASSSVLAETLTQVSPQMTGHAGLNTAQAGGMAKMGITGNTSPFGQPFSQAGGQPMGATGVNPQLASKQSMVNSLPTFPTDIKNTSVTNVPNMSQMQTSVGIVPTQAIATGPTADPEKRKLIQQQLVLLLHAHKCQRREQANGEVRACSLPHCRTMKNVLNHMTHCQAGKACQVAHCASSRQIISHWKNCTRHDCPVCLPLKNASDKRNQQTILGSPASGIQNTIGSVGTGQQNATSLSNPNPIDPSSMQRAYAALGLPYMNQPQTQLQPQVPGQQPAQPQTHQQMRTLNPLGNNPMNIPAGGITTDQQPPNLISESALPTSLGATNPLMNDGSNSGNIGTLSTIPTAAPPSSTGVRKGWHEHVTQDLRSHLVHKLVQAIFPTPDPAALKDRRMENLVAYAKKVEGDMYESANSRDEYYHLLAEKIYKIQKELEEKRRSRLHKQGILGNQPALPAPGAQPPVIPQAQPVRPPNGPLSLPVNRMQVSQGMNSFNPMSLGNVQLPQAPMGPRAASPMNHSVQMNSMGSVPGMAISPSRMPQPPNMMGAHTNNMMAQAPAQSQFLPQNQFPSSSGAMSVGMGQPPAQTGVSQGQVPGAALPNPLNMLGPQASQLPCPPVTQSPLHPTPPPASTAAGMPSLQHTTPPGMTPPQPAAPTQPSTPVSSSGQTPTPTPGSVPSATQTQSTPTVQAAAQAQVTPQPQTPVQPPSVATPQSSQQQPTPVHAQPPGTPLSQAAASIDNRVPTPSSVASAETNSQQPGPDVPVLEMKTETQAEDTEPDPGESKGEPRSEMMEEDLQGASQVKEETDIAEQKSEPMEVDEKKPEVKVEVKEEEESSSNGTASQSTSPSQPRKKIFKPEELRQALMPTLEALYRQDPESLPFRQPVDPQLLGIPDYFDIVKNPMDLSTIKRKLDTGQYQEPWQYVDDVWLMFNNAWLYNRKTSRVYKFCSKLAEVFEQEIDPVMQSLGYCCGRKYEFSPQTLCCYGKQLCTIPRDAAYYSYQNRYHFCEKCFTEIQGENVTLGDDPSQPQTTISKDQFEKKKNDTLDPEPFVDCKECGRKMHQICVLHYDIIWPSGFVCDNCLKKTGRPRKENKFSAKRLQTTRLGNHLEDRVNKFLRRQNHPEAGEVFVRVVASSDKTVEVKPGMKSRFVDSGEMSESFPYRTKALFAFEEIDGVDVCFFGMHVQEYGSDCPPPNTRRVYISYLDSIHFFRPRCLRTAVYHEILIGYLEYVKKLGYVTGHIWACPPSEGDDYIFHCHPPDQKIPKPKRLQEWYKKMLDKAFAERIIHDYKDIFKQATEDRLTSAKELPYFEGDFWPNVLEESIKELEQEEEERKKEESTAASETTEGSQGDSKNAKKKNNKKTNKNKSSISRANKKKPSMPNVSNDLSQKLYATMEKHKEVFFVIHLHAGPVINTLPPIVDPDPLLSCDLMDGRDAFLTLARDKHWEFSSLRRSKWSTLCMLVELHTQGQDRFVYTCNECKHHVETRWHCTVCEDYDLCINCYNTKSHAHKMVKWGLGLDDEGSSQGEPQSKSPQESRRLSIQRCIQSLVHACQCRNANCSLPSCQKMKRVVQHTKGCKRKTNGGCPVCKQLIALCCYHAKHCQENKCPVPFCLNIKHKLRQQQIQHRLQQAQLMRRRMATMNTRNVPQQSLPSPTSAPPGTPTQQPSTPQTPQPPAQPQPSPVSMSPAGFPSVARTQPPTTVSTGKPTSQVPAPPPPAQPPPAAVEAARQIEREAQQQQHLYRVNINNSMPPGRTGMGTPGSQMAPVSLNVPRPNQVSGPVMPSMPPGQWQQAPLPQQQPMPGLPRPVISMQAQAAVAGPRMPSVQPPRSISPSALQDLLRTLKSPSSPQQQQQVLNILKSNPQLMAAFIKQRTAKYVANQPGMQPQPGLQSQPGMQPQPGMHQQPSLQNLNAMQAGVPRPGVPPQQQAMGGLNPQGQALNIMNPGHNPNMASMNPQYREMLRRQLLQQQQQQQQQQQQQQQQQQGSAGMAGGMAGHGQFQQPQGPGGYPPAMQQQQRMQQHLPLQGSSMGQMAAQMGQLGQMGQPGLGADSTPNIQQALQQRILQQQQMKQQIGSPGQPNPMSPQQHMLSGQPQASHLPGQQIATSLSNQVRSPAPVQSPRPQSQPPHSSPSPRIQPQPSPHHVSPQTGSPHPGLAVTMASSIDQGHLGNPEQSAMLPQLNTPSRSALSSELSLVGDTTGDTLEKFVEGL
Protocol: as §1

[5] = test system: H3K27ac; assay: Western blot for H3K27ac levels in Kelly NB cells; format: cell-based; settings: 24 hours; for H3K27ac / acetylation levels (immunoblot): concentration not given; for acetylation levels (immunoblot): at 1 μM
Protocol: (§2) Kelly Neuroblastoma cells were seeded at 1,000,000 cells per well in 6 well plates and were treated in a dose-dependent manner for 24 hours. Whole cell lysates were collected using ice cold lysis buffer [300 mM NaCl, 50 mM Tris-HCl, pH 7.5, 0.5% Triton X-100, 1% sodium dodecyl sulfate (SDS), 1 mM dithiothreitol (DTT) (Invitrogen™), Roche®'s cOmplete™ protease inhibitor cocktail (1:000), 25 units/mL Benzonase®] and blotted at a protein concentration of 30 μg for EP300 and CBP and 10 μg for histone H3 and H3K27ac. Lysates were also blotted for bromodomain-containing protein 4 (BRD4). Lysates were resolved in NuPAGE™ 3-8% Tris-Acetate polyacrylamide gels (EA03785BOX, Invitrogen™) for EP300 and CBP and Bolt 4-12% Bis-Tris polyacrylamide gels (NW04125BOX, Invitrogen™) for H3 and H3K27ac. Afterwards, gels were transferred to nitrocellulose membranes (LC2001, Invitrogen™). […] Visualization was performed on an Odyssey infrared imaging system (LiCor® Biosciences).

[6] = target: bromodomain-containing protein 4 (BRD4) (Homo sapiens (Human), UniProt O60885); assay: Western blot for BRD4 levels in Kelly NB cells; format: cell-based; settings: 24 h, at 1 μM
Protocol: Kelly Neuroblastoma cells were seeded at 1,000,000 cells per well in 6 well plates and were treated in a dose-dependent manner for 24 hours. Whole cell lysates were collected using ice cold lysis buffer [300 mM NaCl, 50 mM Tris-HCl, pH 7.5, 0.5% Triton X-100, 1% sodium dodecyl sulfate (SDS), 1 mM dithiothreitol (DTT) (Invitrogen™), Roche®'s cOmplete™ protease inhibitor cocktail (1:000), 25 units/mL Benzonase®] and blotted at a protein concentration of 30 μg for EP300 and CBP and 10 μg for histone H3 and H3K27ac. Lysates were also blotted for bromodomain-containing protein 4 (BRD4). Lysates were resolved in NuPAGE™ 3-8% Tris-Acetate polyacrylamide gels (EA03785BOX, Invitrogen™) for EP300 and CBP and Bolt 4-12% Bis-Tris polyacrylamide gels (NW04125BOX, Invitrogen™) for H3 and H3K27ac. Afterwards, gels were transferred to nitrocellulose membranes (LC2001, Invitrogen™). Primary and secondary antibodies used included anti-p300 at 1:500 dilution (ab10485, Abcam®), anti-CBP at 1:500 dilution (D6C5, Cell Signaling Technology®), anti-Actin at 1:5000 dilution (3700S, Cell Signaling Technology®), anti-H3 at 1:1000 dilution (4499S, Cell Signaling Technology®), anti-H3K27ac at 1:1000 dilution (ab4729, Abcam®), IRDye®800 goat anti-rabbit at 1:5000 dilution (926-32211, LiCor® Biosciences) and IRDye®680 goat anti-mouse at 1:5000 dilution (926-68070, LiCor®). Visualization was performed on an Odyssey infrared imaging system (LiCor® Biosciences).

[7] = test system: Kelly Neuroblastoma cells; assay: Western blot experiment, cytotoxicity observed in Kelly NB cells; format: cell-based; settings: 24 hours
Protocol: as §2

[8] = Kelly Neuroblastoma cells, class symbols, read-out: IC50 of inventive bispecific compounds
[9] = Kelly Neuroblastoma cells, read-out: IC50

| SMILES | IC50 [1, 8] | IC50 [1, 9] | P300 degradation (immunoblot) ([3]; at 1 μM) | CBP degradation (immunoblot) ([4]; at 1 μM) | acetylation levels (immunoblot) [5] | BRD4 degradation (immunoblot) [6] | other results |
| --- | --- | --- | --- | --- | --- | --- | --- |
| Cc1noc(C)c1-c1ccc2nc(-c3ccc(N4CCN(C(=O)CCOCCOCCOCCNc5cccc6c5C(=O)N(C5CCC(=O)NC5=O)C6=O)CC4)cc3)c(NC3CCCCC3)n2c1 (stereo not shown) [Compound 2, 4-((2-(2-(2-(3-(4-(4-(3-(cyclohexylamino)-6-(3,5-dimethylisoxazol-4-yl)imidazo[1,2-a]pyridin-2-yl)phenyl)piperazin-1-yl)-3-oxopropoxy)ethoxy)ethoxy)ethyl)amino)-2-(2,6-dioxopiperidin-3-yl)isoindoline-1,3-dione] | < 100 nM | 91.8 ± 6.58 nM | – | – | – | – | IC50 potency relative to A485 ([1]; Kelly Neuroblastoma cells, more potent than A485): about 10 fold; bound to CBP (bromodomain), range [2]: ~10 µM; EP300 degradation (immunoblot) ([3]; concentration not given): potent degrader; CBP degradation (immunoblot) ([4]; concentration not given): potent degrader; H3K27ac / acetylation levels (immunoblot) [5]: evident reduction |
| Cc1noc(C)c1-c1ccc2nc(-c3ccc(N4CCN(C(=O)CCOCCOCCOCCOCCOCCOCCNc5cccc6c5C(=O)N(C5CCC(=O)NC5=O)C6=O)CC4)cc3)c(NC3CCCCC3)n2c1 (stereo not shown) [Compound 3, 4-((21-(4-(4-(3-(cyclohexylamino)-6-(3,5-dimethylisoxazol-4-yl)imidazo[1,2-a]pyridin-2-yl)phenyl)piperazin-1-yl)-21-oxo-3,6,9,12,15,18-hexaoxahenicosyl)amino)-2-(2,6-dioxopiperidin-3-yl)isoindoline-1,3-dione] | 100 to 1000 nM | 706 nM | – | – | – | – | IC50 values (range in words) [1]: micromolar and sub-micromolar range; P300 degradation (immunoblot) ([3]; at 10 μM): some degradation; CBP degradation (immunoblot) ([4]; at 10 μM): some degradation |
| Cc1noc(C)c1-c1ccn2c(NCc3ccccc3)c(-c3ccc(N4CCN(C(=O)COc5cccc6c5C(=O)N(C5CCC(=O)NC5=O)C6=O)CC4)cc3)nc2c1 (stereo not shown) [Compound 7, 4-(2-(4-(4-(3-(benzylamino)-7-(3,5-dimethylisoxazol-4-yl)imidazo[1,2-a]pyridin-2-yl)phenyl)piperazin-1-yl)-2-oxoethoxy)-2-(2,6-dioxopiperidin-3-yl)isoindoline-1,3-dione] | < 100 nM | 33.1 nM | noticeable degradation | noticeable degradation | – | – | IC50 values (range in words) [1]: micromolar and sub-micromolar range; H3K27ac / acetylation levels (immunoblot) [5]: slight reduction |
| Cc1noc(C)c1-c1ccn2c(NC3CCCCC3)c(CCc3ccc(NC(=O)CCOCCOCCOCCNc4cccc5c4C(=O)N(C4CCC(=O)NC4=O)C5=O)cc3)nc2c1 (stereo not shown) [Compound 8, N-(4-(2-(3-(cyclohexylamino)-7-(3,5-dimethylisoxazol-4-yl)imidazo[1,2-a]pyridin-2-yl)ethyl)phenyl)-3-(2-(2-(2-((2-(2,6-dioxopiperidin-3-yl)-1,3-dioxoisoindolin-4-yl)amino)ethoxy)ethoxy)ethoxy)propanamide] | 100 to 1000 nM | – | noticeable degradation | noticeable degradation | reduction | observed | – |
| Cc1noc(C)c1-c1ccn2c(NC3CCCCC3)c(CCc3ccc(NC(=O)CCCCCNc4cccc5c4C(=O)N(C4CCC(=O)NC4=O)C5=O)cc3)nc2c1 (stereo not shown) [Compound 11, N-(4-(2-(3-(cyclohexylamino)-7-(3,5-dimethylisoxazol-4-yl)imidazo[1,2-a]pyridin-2-yl)ethyl)phenyl)-6-((2-(2,6-dioxopiperidin-3-yl)-1,3-dioxoisoindolin-4-yl)amino)hexanamide] | 100 to 1000 nM | – | noticeable degradation | noticeable degradation | reduction | observed | – |
| Cc1noc(C)c1-c1ccn2c(NC3CCCCC3)c(CCc3ccc(NC(=O)COc4cccc5c4C(=O)N(C4CCC(=O)NC4=O)C5=O)cc3)nc2c1 (stereo not shown) [Compound 12, N-(4-(2-(3-(cyclohexylamino)-7-(3,5-dimethylisoxazol-4-yl)imidazo[1,2-a]pyridin-2-yl)ethyl)phenyl)-2-((2-(2,6-dioxopiperidin-3-yl)-1,3-dioxoisoindolin-4-yl)oxy)acetamide] | 1000 to 10000 nM | – | noticeable degradation | – | reduction | observed | – |
| Cc1noc(C)c1-c1ccc2c(c1)nc(CCc1ccc(NCCNC(=O)CCCCCNc3cccc4c3C(=O)N(C3CCC(=O)NC3=O)C4=O)cc1)n2CC(C)N1CCOCC1 (stereo not shown) [Compound 28, N-(2-((4-(2-(5-(3,5-dimethylisoxazol-4-yl)-1-(2-morpholinopropyl)-1H-benzo[d]imidazol-2-yl)ethyl)phenyl)amino)ethyl)-6-((2-(2,6-dioxopiperidin-3-yl)-1,3-dioxoisoindolin-4-yl)amino)hexanamide] | > 10000 nM | – | – | – | – | – | – |
| Cc1noc(C)c1-c1ccc2c(c1)nc([C@@H]1CCCC(=O)N1c1ccc(F)c(F)c1)n2[C@H]1CC[C@H](NC(=O)CCCCCCCCCNc2cccc3c2C(=O)N(C2CCC(=O)NC2=O)C3=O)CC1 (stereo partly drawn) [Compound 29, N-((1S,4r)-4-(2-((S)-1-(3,4-difluorophenyl)-6-oxopiperidin-2-yl)-5-(3,5-dimethylisoxazol-4-yl)-1H-benzo[d]imidazol-1-yl)cyclohexyl)-10-((2-(2,6-dioxopiperidin-3-yl)-1,3-dioxoisoindolin-4-yl)amino)decanamide] | < 100 nM | – | – | – | – | – | – |
| Cc1noc(C)c1-c1ccc2c(c1)nc([C@@H]1CCCC(=O)N1c1ccc(F)c(F)c1)n2[C@H]1CC[C@H](NC(=O)CCCCCNc2cccc3c2C(=O)N(C2CCC(=O)NC2=O)C3=O)CC1 (stereo partly drawn) [Compound 30, N-((1S,4r)-4-(2-((S)-1-(3,4-difluorophenyl)-6-oxopiperidin-2-yl)-5-(3,5-dimethylisoxazol-4-yl)-1H-benzo[d]imidazol-1-yl)cyclohexyl)-6-((2-(2,6-dioxopiperidin-3-yl)-1,3-dioxoisoindolin-4-yl)amino)hexanamide] | 100 to 1000 nM | – | – | – | – | – | – |
| Cc1noc(C)c1-c1ccc2nc(-c3ccc(N4CCNCC4)cc3)c(NC3CCCCC3)n2c1.Cl [Int-2] | – | – | – | – | – | – | bound to CBP (bromodomain), range [2]: ~10 µM; general cytotoxicity [7]: general cytotoxicity |
